# Assay results reported in patent US12458630B2, “Combination therapy for cancer” (The Regents of the University of California, priority 2020, dated 2025).
# Assays:
# human PDAC 1334 tumors = assay: s.c. tumors in nude mice; assay type: in vivo, mouse; conditions: EIPA 7.5 mg/kg, MRT68921 10 mg/kg, 15 days
# Method: (§1) In some embodiments, to evaluate the effects of MP on tumor growth or survival in the autochthonous model, Kras^G12D;Ikkα^ΔPEC mice, at 4 weeks of age, were treated with vehicle or 10 mg/kg EIPA (Sigma) by i.p. injection every other day for 1 month. After that, surgically removed pancreata were weighed and used for further analysis and other mice were continued to maintain for survival. To evaluate the effects of MP on heterotopic xenografts, female homozygous BALB/c Nu/Nu nude mice were injected subcutaneously (s.c.) in both flanks at 7 weeks of age with 10^6 parental and IKKα^Δ MIA PaCa-2 cells or 1334 and 1444 cells mixed at a 1:1 dilution with BD Matrigel (BD Biosciences) in a total volume of 100 μl. Mice were treated with vehicle (DMSO in PBS), EIPA (7.5 mg/kg), MRT68921 (10 mg/kg) or MRT68921 and EIPA for 15 days when tumors attained an average volume of 50-100 mm^3. Volumes (1/2×(width^2×length)) of s.c. tumors were calculated on the basis of measurements using digital calipers after 15 days of treatment. To evaluate the combination effects of autophagy and MP inhibition on tumor growth, C57BL/6 mice were injected s.c. at 7 weeks of age with 10^6 parental, Ikkα KD, Nhe1 KD or Ikkα+Nhe1 DKD KC6141 cells in a total volume of 100 μl. Mice were treated with or without vehicle, EIPA (7.5 mg/kg), MRT68921 (10 mg/kg), or EIPA and MRT68921 for 21 days when tumors attained an average volume of 50-100 mm^3. Tumor volumes were calculated as above.
# human PDAC 1444 tumors = assay: s.c. tumors in nude mice; assay type: in vivo, mouse; conditions: EIPA 7.5 mg/kg, MRT68921 10 mg/kg, 15 days
# Method: as §1
# KC6141 cells [1] = assay: Luminescence ATP detection assay; assay type: cell-based, mouse; conditions: 0.5 mM glucose, 24 hrs; for cellular ATP: KC6141 cells on ECM, EIPA 10.5 μM, MBQ-167 500 nM, MRT68921 600 nM
# Method: (§2) Extracellular Matrix (ECM) Preparation. Skin fibroblasts were seeded on 6/12/96-well plates. One day after plating, cells were switched into DMEM (with pyruvate) with 10% dialysed FBS supplemented with or without 500 μM ^3H-proline and 100 μM Vitamin C. Cells were cultured for 6 days with media renewal every 24 h. After six days, skin fibroblasts were removed by washing in 1 ml or 500 μl or 100 μl per well PBS with 0.5% (v/v) Triton X-100 and 20 mM NH4OH. ECM was washed five times with PBS before plating KC6141 cells. The following day, KC6141 cells were switched into the indicated medium for 24 or 72 hrs.
# Luminescence ATP Detection Assay. Intracellular ATP level was determined with luminescence ATP detection assay system (PerkinElmer) according to manufacturer's protocol. Briefly, KC6141 cells were grown on 96-well plates coated with or without ECM in the presence of 100 μl 0.5 mM glucose medium with or without EIPA (10.5 μM), MBQ-167 (500 nM), MRT68921 (600 nM) or their combinations for 24 hrs. 50 μl mammalian cell lysis solution was added and shaken for 5 minutes. Next, 50 μl substrate solution was added and shaken for five minutes. Finally, plate was adapted in dark for 10 minutes and luminescence was measured.
# KC6141 cells [2] = assay: L-Amino acid assay; assay type: cell-based, mouse; conditions: 0.5 mM glucose, 24 hrs; for amino acid content: KC6141 cells on ECM
# Method: as §2
# L-Amino Acid Assay. Total amount of free L-amino acids (except for glycine) were measured by L-Amino Acid Assay Kit (Colorimetric) (antibodies) according to manufacturer's protocol. Briefly, KC6141 cells were grown on 6-well plates coated with or without ECM and treated as above. The cells were resuspended at 10^6 cells/mL 1× Assay Buffer and were homogenized on ice and then centrifuged to remove debris. 50 μL of each L-Alanine standard or cell lysis was added into wells of a 96-well microtiter plate. Then 50 μL of Reaction Mix was added to each well. The well contents were mixed thoroughly and incubated for 90 minutes at 37° C. protected from light. The plate was read with a spectrophotometric microplate reader in the 540-570 nm range. The concentration of L-Amino Acids was calculated within samples by comparing the sample OD to the standard curve.
# [3] = p62 KD or Nrf2 KD KC6141 cells on ECM
Compound,tumor growth (human PDAC 1334 tumors),tumor growth (human PDAC 1444 tumors),cellular ATP (KC6141 cells [1]),cellular ATP in p62/NRF2 ablated cells (KC6141 cells [1]; [3]),amino acid content (KC6141 cells [2]),amino acid content in p62/NRF2 ablated cells (KC6141 cells [2]; [3])
"CCN(c1nc(N)c(C(=O)N=C(N)N)nc1Cl)C(C)C [EIPA, 5-(N-ethyl-N-isopropyl) amiloride]",sensitive to EIPA,small effect,reduced,ineffective,reduced,ineffective
CN1CCc2cc(Nc3ncc(C4CC4)c(NCCCNC(=O)C4CCC4)n3)ccc2C1 [MRT68921],insensitive to MRT68921,small effect,further elevated,–,further elevated,–
